According to patent publication US20260248763A1 (BIO GENUINE (SHANGHAI) BIOTECH CO., LTD, priority 2023, published 2026):

These compounds were tested against T1, OTR (Homo sapiens, UniProt P30559) (assay: Ca2+ mobilization in cells stably expressing OTR (FLIPR, antagonist mode)). Settings: OTR/HEK293 stably transfected cell line.
T1 construct: expressed in transfected cells; host or cells: OTR/HEK293 stably transfected cell line
T1 sequence (P30559 1-389): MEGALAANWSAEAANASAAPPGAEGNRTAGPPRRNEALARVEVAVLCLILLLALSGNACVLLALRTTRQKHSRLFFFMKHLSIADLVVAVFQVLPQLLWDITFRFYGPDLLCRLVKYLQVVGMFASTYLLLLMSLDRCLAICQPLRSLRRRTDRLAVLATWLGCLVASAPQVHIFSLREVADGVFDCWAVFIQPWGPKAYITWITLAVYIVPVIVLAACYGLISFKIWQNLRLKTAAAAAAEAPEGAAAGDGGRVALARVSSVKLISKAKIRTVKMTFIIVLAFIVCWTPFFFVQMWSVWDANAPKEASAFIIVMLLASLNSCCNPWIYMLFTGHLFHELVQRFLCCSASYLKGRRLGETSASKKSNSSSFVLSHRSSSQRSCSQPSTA
Assay type: cell-based
Text: Test Example 1. Determination of the Effect of the Compound of the Present Disclosure on Ca^2+ Mobilization in Cells Stably Expressing OTR
To measure the antagonistic effect of the compound of the present disclosure on OTR activity expressed in the OTR/HEK293 stably transfected cell line.
• DMEM medium (Invitrogen, 11965) • F12 medium (Invitrogen, 11765) • Fetal bovine serum (Excell, FSP500) • Geneticin (Invitrogen, 10131) • Penicillin/Streptomycin (Invitrogen, SV30010) • Fluo-4 Direct kit (Invitrogen, F10471) • 384-well cell plate (Greiner, 781090) • 384-well compound plate (Greiner, 781280)
• FLIPR instrument (Molecular Device) • EHCO instrument (Labcyte) • Cell counter (Beckman, Vi-cell XR)
The cultured cells were washed twice with pre-heated DPBS and digested with appropriate amount of trypsin at 37° C. for 1 minute, and then appropriate amount of culture medium was added to terminate digestion. The cells were centrifuged at 1000 rpm for 5 minutes. The supernatant was gently discarded without disturbing the cell pellet at the bottom. The cells were resuspended in culture medium and 1 mL was taken out for cell counting and viability assessment using Vi-CELL™. The cells were diluted to 1×10^6 cells/mL (20,000 cells/20 μL) with culture medium, seeded into a 384-well cell plate and incubated at 37° C. with 5% CO2 for 16-20 h.
Formulation of 250 mM Probenecid solution: according to the kit instructions, 1 mL of FLIPR buffer salt solution was added to 77 mg of probenecid, prepared fresh just before use. Formulation of Fluo-4 Direct™ (2×, 8 μM) loading buffer: according to the kit instructions, the required amount of Fluo-4 Direct™ was taken out and thawed in advance, 10 mL of FLIPR buffer salt solution and 0.2 mL of 250 mM Probenecid solution were added to each tube, and the mixture was vortexed in the dark for >5 minutes, prepared fresh just before use.
Preparation of agonist reference compound plate: the agonist was diluted 3-fold in 10 points using ECHO, and 750 nL was transferred to the corresponding compound plate using ECHO.
Preparation of reference and test compound plates: the test compound was diluted 3-fold in 10 points with ECHO, and 900 nL was transferred to the corresponding compound plate; the reference compound was diluted 3-fold in 10 points with assay buffer salt solution, and 30 μL was transferred to the compound plate.
30 μL of assay buffer salt solution was added to the corresponding compound plate, and the mixture was centrifuged at 1000 rpm for 1 minute.
The cell plate prepared the day before was taken out of the incubator, and 20 μL of 2×Fluo-4 Direct™ buffer was added to each well, with a total volume of 40 μL.
The plate was incubated in an incubator at 37° C. with 5% CO2 for 50 minutes, and then placed at room temperature for 10 minutes.
The compound plate, cell plate, and pipette tips were placed into the instrument.
For the agonist reference compound plate: the FLIPR instrument software was run, 10 μL of the pre-determined concentration of agonist reference compound was added to the cell plate following the preset protocol, and the fluorescence signal was read. After reading, the data were exported to calculate the EC80 for each cell line, and the agonist at 6×EC80 concentration was prepared.
For the compound plate: the FLIPR instrument software was run, 10 μL of the pre-determined concentration of test compound and the reference compound were added to the cell plate following the preset protocol, and the fluorescence signal was read. 10 μL of the reference compound agonist at 6×EC80 concentration was added to the cell plate, and the fluorescence signal was read. For antagonist detection of the compound, the data were exported using the “Max-Min” and “Read 1 to Maximum allowed” methods in the software, and the data were fitted using Prism.

Row | IC50 | Structure (SMILES)
1 | 237 nM | CON=C1C[C@@H](c2nc3ccccc3o2)N(C(=O)c2ccc(-c3ccccc3C)cc2)C1 [Example A0086, (S, EZ)-(2-(Benzo[d]oxazol-2-yl)-4-(methoxyimino)pyrrolidin-1-yl)(2′-methyl-[1, 1′-biphenyl]-4-yl)methanone]
2 | 367 nM | CON=C1C[C@@H](CO)N(C(=O)c2ncc(-c3cccc(C)c3C)nn2)C1 (single isomer, unassigned) [Example C0109]
3 | 815 nM | CO/N=C1/CN(C(=O)c2ccc(-c3ccccc3C)cc2)C2(COC2)C1 [Example A0112, (E)-(7-(Methoxyimino)-2-oxa-5-azaspiro[3.4]octan-5-yl)(2′-methyl-[1, 1′-biphenyl]-4-yl)methanone]
4 | 42.8 nM | CO/N=C1\C[C@@H](CO)N(C(=O)c2ccc(-c3cccc(C#N)c3C)cc2C)C1 [Example A0244, 3-(4-[(2S,4E)-2-(Hydroxymethyl)-4-(methoxyimino)pyrrolidine-1-carbonyl]-3-methylphenyl)-2-methylbenzonitrile]
5 | 102 nM | CO/N=C1/C[C@@H](CO)N(C(=O)c2ccc(-c3cccc(C#N)c3C(F)(F)F)cc2)C1 [Example C0127, (S, Z)-4′-(2-(Hydroxymethyl)-4-(methoxyimino)pyrrolidine-1-carbonyl)-2-(trifluoromethyl)-[1,1′-biphenyl]-3-carbonitrile]
6 | 673 nM | CO/N=C1/C[C@@H](CO)N(C(=O)c2cc(=O)n(-c3cccc(C)c3C)cn2)C1 [Example C0077, (S, Z)-3-(2,3-Dimethylphenyl)-6-(2-(hydroxymethyl)-4-(methoxyimino)pyrrolidine-1-carbonyl)pyrimidin-4(3H)-one]
7 | 158 nM | CO/N=C1\C[C@@H](CO)N(C(=O)c2ccc(-c3ccc(F)c(C#N)c3C)c3c2OCCO3)C1 [Example C0148, (S,E)-6-Fluoro-3-(8-(2-(hydroxymethyl)-4-(methoxyimino)pyrrolidine-1-carbonyl)-2,3-dihydrobenzo[b][1,4]dioxin-5-yl)-2-methylbenzonitrile]
8 | 176 nM | CO/N=C1/C[C@@H](CO)N(C(=O)c2ncc(-c3cccc(C)c3C)c(C(F)(F)F)n2)C1 [Example C0087, (S, Z)-(5-(2,3-Dimethylphenyl)-4-(trifluoromethyl)pyrimidin-2-yl)(2-(hydroxymethyl)-4-(methoxyimino)pyrrolidin-1-yl)methanone]
9 | 1480 nM | CO/N=C1/C[C@@H](CO)N(C(=O)c2ccc(-c3cccc(C#N)c3C)c(C3(O)COC3)c2)C1 [Example A0183, 3-(4-[(2S, 4Z)-2-(Hydroxymethyl)-4-(methoxyimino)pyrrolidine-1-carbonyl]-2-(3-hydroxyoxetan-3-yl)phenyl)-2-methylbenzonitrile]
10 | 363 nM | CO/N=C1/C[C@@H](CO)N(C(=O)c2cnc(-c3cccc(C#N)c3C)cn2)C1 [Example A0251, (S,Z)-3-(5-(2-(Hydroxymethyl)-4-(methoxyimino)pyrrolidine-1-carbonyl)pyrazin-2-yl)-2-methylbenzonitrile]
11 | 115 nM | CO/N=C1/C[C@@H](CO)N(C(=O)c2ccc(-c3cccc4c3CCC4)cc2)C1 [Example C0051, (S, Z)-(4-(2,3-Dihydro-1H-inden-4-yl)phenyl)(2-(hydroxymethyl)-4-(methoxyimino)pyrrolidin-1-yl)methanone]
12 | 1010 nM | CO/N=C1/C[C@@H](CNC(=O)CO)N(C(=O)c2ccc(-c3ccccc3C)cc2)C1 [Example C0008, (S, Z)-2-Hydroxy-N-((4-(methoxyimino)-1-(2′-methyl-[1,1′-biphenyl]-4-carbonyl)pyrrolidin-2-yl)methyl)acetamide]
13 | 888 nM | CO/N=C1/C[C@@H](CO)N(C(=O)c2ccc(-c3ccccc3C)cn2)C1 [Example C0015, (S, Z)-(2-(Hydroxymethyl)-4-(methoxyimino)pyrrolidin-1-yl)(5-(o-tolyl)pyridin-2-yl)methanone]
14 | 534 nM | CO/N=C1/C[C@@H](CNC(=O)OC)N(C(=O)c2ccc(-c3ccccc3C)cc2)C1 [Example C0007, Methyl (S, Z)-((4-(methoxyimino)-1-(2′-methyl-[1,1′-biphenyl]-4-carbonyl)pyrrolidin-2-yl)methyl)carbamate]
15 | 3060 nM | CO/N=C1/CCN(C(=O)c2ccc(-c3cccc(C#N)c3C)cc2)[C@H](CO)C1 [Example A0249, (S,Z)-4′-(2-(Hydroxymethyl)-4-(methoxyimino)piperidine-1-carbonyl)-2-methyl-[1,1′-biphenyl]-3-carbonitrile]
16 | 197 nM | CON=C1C[C@@H](C2(O)CC2)N(C(=O)c2ccc(-c3ccccc3C)cc2)C1 [Example A0066, (S, EZ)-(2-(1-Hydroxycyclopropyl)-4-(methoxyimino)pyrrolidin-1-yl)(2′-methyl-[1,1′-biphenyl]-4-yl)methanone]
17 | 165 nM | CO/N=C1\C[C@@H](CO)N(C(=O)c2ccc(-c3cccc(C)c3C)c(C(=O)NC3COC3)c2)C1 [Example A0179, (S, E)-4-(2-(Hydroxymethyl)-4-(methoxyimino)pyrrolidine-1-carbonyl)-2′, 3′-dimethyl-N-(oxetan-3-yl)-[1,1′-biphenyl]-2-carboxamide]
18 | 539 nM | CO/N=C1\CN(C(=O)c2ccc(-c3ccccc3C)cc2)C(CO)(CO)C1 [Example A0083, (Z)-(2,2-Bis(hydroxymethyl)-4-(methoxyimino)pyrrolidin-1-yl)(2′-methyl-[1, 1′-biphenyl]-4-yl)methanone]
19 | 129 nM | CO/N=C1/C[C@@H](CO)N(C(=O)c2ncc(-c3cccc(C)c3C)cc2OC)C1 [Example C0081, (S, Z)-(5-(2,3-Dimethylphenyl)-3-methoxypyridin-2-yl)(2-(hydroxymethyl)-4-(methoxyimino)pyrrolidin-1-yl)methanone]
20 | 967 nM | CO/N=C1/C[C@@H](CO)N(C(=O)c2ccc(-c3cccc(C#N)c3C)c(N3CCOCC3)n2)C1 [Example A0198, (S, Z)-3-(6-(2-(Hydroxymethyl)-4-(methoxyimino)pyrrolidine-1-carbonyl)-2-morpholinopyridin-3-yl)-2-methylbenzonitrile]
21 | 279 nM | CO/N=C1/C[C@@H](CO)N(C(=O)c2ccc(-c3ccnc(C#N)c3C)cc2)C1 [Example C0091, (S, Z)-4-(4-(2-(Hydroxymethyl)-4-(methoxyimino)pyrrolidine-1-carbonyl)phenyl)-3-methylpicolinonitrile]
22 | 1510 nM | CO/N=C1/C[C@@H](CO)N(C(=O)c2ccc(-c3cccc(C#N)c3C)c3ncnn23)C1 [Example A0190, (S, Z)-3-(5-(2-(Hydroxymethyl)-4-(methoxyimino)pyrrolidine-1-carbonyl)-[1,2,4]triazolo[1,5-a]pyridin-8-yl)-2-methylbenzonitrile]

Row | Structure (SMILES) | IC50
23 | CO/N=C1\C[C@@H](CO)N(C(=O)c2ccc(-c3cccc(C#N)c3C)cc2OC)C1 [Example A0245] | 58.1 nM
24 | CO/N=C1/C[C@@H](CO)N(C(=O)c2ccc(-c3ccc(C#N)cc3C)cc2)C1 (single isomer, unassigned) [Example C0093] | 1140 nM
25 | CO/N=C1/CC2(CO)CCC1N2C(=O)c1ccc(-c2ccccc2C)cc1 (single isomer, unassigned) [Example A0087] | 1080 nM
